biological target: Glycolate oxidase (GO) (Homo sapiens (Human), UniProt Q9UJM8); assay: GO biochemical assay (Amplex Red, 384-well)
Description: Amplex® Red Hydrogen Peroxide/Peroxidase Assay Kit (Catalog no. A22188) was purchased from Thermo Fisher (Waltham, MA).
The reaction was mixed and incubated at room temperature for 20 min followed by reading the plates by EnVision plate reader (Perkin Elmer, San Jose, CA) with excitation at 570 nm and emission 585 nm. […] The % inhibition as calculated as 100%×(Well-Negative)/(Positive-Negative)

Sequence of Glycolate oxidase (GO) (Q9UJM8 whole entry): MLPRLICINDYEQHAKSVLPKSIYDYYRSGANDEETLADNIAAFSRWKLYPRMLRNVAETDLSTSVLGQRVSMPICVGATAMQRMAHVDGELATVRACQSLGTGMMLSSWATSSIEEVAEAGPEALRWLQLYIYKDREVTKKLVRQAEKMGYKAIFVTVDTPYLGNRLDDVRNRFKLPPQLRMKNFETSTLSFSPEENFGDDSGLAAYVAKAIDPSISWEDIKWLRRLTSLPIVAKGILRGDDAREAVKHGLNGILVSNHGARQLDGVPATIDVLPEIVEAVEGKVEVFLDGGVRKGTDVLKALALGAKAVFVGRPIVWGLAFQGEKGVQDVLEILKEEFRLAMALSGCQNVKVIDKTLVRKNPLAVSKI

SMILES	IC50 [nM]
O=C(O)c1[nH]nnc1-c1ccc(-c2ccc(-c3ncco3)cc2)cc1 [Example 112]	37.5
Cn1nnc(-c2ccc(F)c(Cl)c2)c1C(=O)O [Example 150, 4-(3-chloro-4-fluorophenyl)-1-methyl-11H-1,2,3-triazole-5-carboxylic acid]	≥ 10000
O=C(O)c1[nH]ncc1-c1ccccn1 [Example 140, 4-(pyridin-2-yl)-1H-pyrazole-5-carboxylic acid]	≥ 10000
O=C(O)c1[nH]nnc1-c1ccc(-c2ccc(-c3cnn[nH]3)cc2)cc1 [Example 127]	4.14
Cc1cnc(-c2ccc(-c3ccc(-c4nn[nH]c4C(=O)O)cc3)cc2)s1 [Example 109]	22.7
O=C(O)c1[nH]nnc1-c1ccc(Cl)c(Cl)c1 [Example 19, 4-(3,4-dichlorophenyl)-1H-1,2,3-triazole-5-carboxylic acid]	196
O=C(O)c1n[nH]cc1-c1cccnc1 [Example 35, 4-(pyridin-3-yl)-1H-pyrazole-3-carboxylic acid]	≥ 10000
Cn1nnc(C(=O)O)c1-c1ccc(F)c(Cl)c1 [Example 17, 5-(3-chloro-4-fluorophenyl)-1-methyl-1H-1,2,3-triazole-4-carboxylic acid]	≥ 10000
NS(=O)(=O)c1ccc(-c2ccc(-c3nn[nH]c3C(=O)O)cc2)cc1 [Example 77]	94.6
O=C(O)c1[nH]nnc1-c1ccc(-c2cccc(-c3ccccc3)c2)cc1 [Example 99, 4-([1,131terphenyl]-4-yl)-1H-1,2,3-triazole-5-carboxylic acid]	408
O=C(O)c1[nH]nnc1-c1ccc(-c2ccc(S(=O)(=O)N3CCCCC3)cc2)cc1 [Example 79]	244
O=C(O)c1[nH]nnc1-c1ccc2c(c1)[nH]c1ccccc12 [Example 88, 4-(9H-carbazol-2-yl)-1H-1,2,3-triazole-5-carboxylic acid]	77.6
O=C(O)c1[nH]nnc1-c1ccc2c(c1)OC(F)(F)O2 [Example 29, 4-(2,2-difluorobenzo[d][1,3]dioxol-5-yl)-1H-1,2,3-triazole-5-carboxylic acid]	330
Cc1[nH]nnc1-c1ccc(-c2ccc(-c3nn[nH]c3C(=O)O)cc2)cc1 [Example 131]	4.67
O=C(O)c1[nH]nnc1-c1ccc(-c2ccc(Cl)c(S(=O)(=O)N3CCOCC3)c2)cc1 [Example 146]	33.6
N#Cc1cccc(-c2nn[nH]c2C(=O)O)c1 [Example 12]	130
Cc1ccc(-c2ccc(-c3nn[nH]c3C(=O)O)cc2)cc1 [Example 53]	377
CC(=O)N1CC=C(c2ccc(-c3nn[nH]c3C(=O)O)cc2)CC1 [Example 162, 4-(4-(1-acetyl-1,2,3,6-tetrahydropyridin-4-yl)phenyl)-1H-1,2,3-triazole-5-carboxylic acid]	88.2
O=C(O)c1[nH]nnc1-c1ccc(-c2ccc(-c3cn[nH]c3)cc2)cc1 [Example 124]	16.1
O=C(O)c1[nH]nnc1-c1ccc(-c2ccc(N3CCCC3=O)cc2)cc1 [Example 83]	136
O=C(O)c1[nH]cnc1-c1cc(Cl)cc(Cl)c1 [Example 185, 4-(3,5-dichlorophenyl)-1H-imidazole-5-carboxylic acid]	> 10000
CCOC(=O)c1[nH]nnc1-c1ccc(-c2ccc(Cl)cc2)cc1 [Example 1]	1000
Cc1ccccc1-c1nn[nH]c1C(=O)O [Example 3, 4-(o-tolyl)-1H-1,2,3-triazole-5-carboxylic acid]	≥ 10000
O=C(O)c1[nH]ncc1-c1ccc2c(c1)C(F)(F)c1cc(-c3c[nH]nn3)ccc1-2 [Example 170, 4-(9,9-difluoro-7-(1H-1,2,3-triazol-4-yl)-9H-fluoren-2-yl)-1H-pyrazole-5-carboxylic acid]	16.5
Cc1cc(-c2ccc(-c3nn[nH]c3C(=O)O)cc2)ccc1Cl [Example 91]	64.5
O=C(O)c1[nH]nnc1-c1ccc(-c2ccc(-c3c[nH]cn3)cc2)cc1 [Example 129]	24
O=C(O)c1c[nH]nc1-c1cc(Cl)cc(Cl)c1 [Example 183, 3-(3,5-dichlorophenyl)-1H-pyrazole-4-carboxylic acid]	> 10000
CN(C)C(=O)c1cccc(-c2ccc(-c3nn[nH]c3C(=O)O)cc2)c1 [Example 143]	1000
O=C(O)c1[nH]nnc1-c1ccc(-c2cccc(S(=O)(=O)N3CCOCC3)c2)cc1 [Example 75]	18.6

The next lines start with the values.

IC50 [nM]	SMILES
226	O=C(O)c1[nH]nnc1C#Cc1ccc(Cl)cc1 [Example 160, 4-((4-chlorophenyl)ethynyl)-1H-1,2,3-triazole-5-carboxylic acid]
≥ 10000	O=C(O)c1[nH]nnc1-c1ccccn1 [Example 139, 4-(pyridin-2-yl)-1H-1,2,3-triazole-5-carboxylic acid]
≥ 10000	Cc1ccc(-c2nn[nH]c2C(=O)O)cc1 [Example 5, 4-(p-tolyl)-1H-1,2,3-triazole-5-carboxylic acid]
1000	O=C(O)c1[nH]nnc1-c1ccc(-c2ccc(N3CCOCC3)cc2)cc1 [Example 84]
4300	CC(C)(C)c1ccc(-c2ccc(-c3nn[nH]c3C(=O)O)cc2)cc1 [Example 54]
1310	O=C(O)c1[nH]nnc1-c1cccc(F)c1 [Example 8, 4-(3-fluorophenyl)-1H-1,2,3-triazole-5-carboxylic acid]
≥ 10000	O=C(O)c1[nH]nnc1-c1cscn1 [Example 141, 4-(thiazol-4-yl)-1H-1,2,3-triazole-5-carboxylic acid]
1000	COc1cc2ccc(-c3nn[nH]c3C(=O)O)cc2cn1 [Example 40, 4-(3-methoxyisoquinolin-7-yl)-1H-1,2,3-triazole-5-carboxylic acid]
159	O=C(O)c1[nH]nnc1-c1cccc(Cl)c1F [Example 22, 4-(3-chloro-2-fluorophenyl)-1H-1,2,3-triazole-5-carboxylic acid]
19.7	Cc1cc(-c2ccc(-c3ccc(-c4nn[nH]c4C(=O)O)cc3)cc2)nn1C [Example 117]
1000	CC(=O)N1CCC(c2ccc(-c3nn[nH]c3C(=O)O)cc2)CC1 [Example 163, 4-(4-(1-acetylpiperidin-4-yl)phenyl)-1H-1,2,3-triazole-5-carboxylic acid]
93.2	O=C(O)c1[nH]nnc1-c1ccc(-c2ccc(-c3ccncc3)cc2)cc1 [Example 103]
563	O=C(O)c1[nH]nnc1-c1ccc(-c2ccc(OC(F)(F)F)cc2)cc1 [Example 55]
119	CC1(C)c2cc(-c3ccc(-c4nn[nH]c4C(=O)O)cc3)ccc2C(=O)N1CC(F)(F)F [Example 153, 4-(4-(3,3-dimethyl-1-oxo-2-(2,2,2-trifluoroethyl)isoindolin-5-yl)phenyl)-1H-1,2,3-triazole-5-carboxylic acid]
10.7	O=C(O)c1[nH]nnc1-c1ccc(-c2ccc(-c3nc4ccccc4s3)cc2)cc1 [Example 122]
> 10000	O=C(O)c1c[nH]nc1-c1ccc(F)c(Cl)c1 [Example 182, 3-(3-chloro-4-fluorophenyl)-1H-pyrazole-4-carboxylic acid]
23.8	O=C(O)c1[nH]nnc1-c1ccc2c(c1)oc1ccccc12 [Example 87, 4-(dibenzo[b,d]furan-3-yl)-1H-1,2,3-triazole-5-carboxylic acid]
> 10000	O=C(O)c1[nH]cnc1-c1ccc(F)c(Cl)c1 [Example 184, 4-(3-chloro-4-fluorophenyl)-1H-imidazole-5-carboxylic acid]
